Where two headings read alike, the source gives them in different places.
What was measured:
[1] = test system: NCI-H358 cells (express KRas G12C), Phospho-ERK; experiment: Cellular inhibition of KRas G12C: Phospho-ERK in NCI-H358 cells; assay type: cell-based; conditions: pERK(Thr202/Tyr204) normalized with GAPDH, NCI-H358 cells, 3 hours, read-out: IC50
How it was run: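 IC50 derived by 4-parameter fit of GAPDH-normalized pERK(Thr202/Tyr204) signal, as percent of DMSO control. Signal came from in-cell immunodetection with infrared secondaries after 3 h compound exposure of KRas G12C NCI-H358 cells at 0.5% DMSO.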

[2] = biological target: KRas G12C (Homo sapiens, UniProt P01116, C118S/C51S/C80L/G12C); experiment: KRas G12C Modification Assay (LCMS detection of covalent adduct); assay type: binding; conditions: normalized percent of control; tested at 5 μM concentration for 3 hours
How it was run: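 Cys-light KRas G12C mutant protein incubated with compound in K-Ras assay buffer, reactions quenched at set time points with 25 mM acetic acid and analysed by intact-protein LC/MS on a C-3 column. Deconvoluted mass heights expressed as percent of control (POC) relative to compound-free protein.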

## C=CC(=O)N1CCN(c2nc(OC3CCN(C)CC3)nc3c2CCN(c2cc(O)cc4ccccc24)C3)CC1 [Example 22, 1-(4-(7-(3-hydroxynaphthalen-1-yl)-2-((1-methylpiperidin-4-yl)oxy)-5,6,7,8-tetrahydropyrido[3,4-d]pyrimidin-4-yl)piperazin-1-yl)prop-2-en-1-one]
[1]; Homo sapiens, NCI-H358, 3 h
  IC50: > 1000 nM
[2]
  POC: C (“C”>50% POC)

## CN1CCC[C@H]1COc1nc2c(c(N3CCN(C(=O)/C=C/CN4CCCCC4)[C@@H](CC#N)C3)n1)CCN(c1cccc3ccccc13)C2 [Example 236, 2-((S)-4-(2-(((S)-1-methylpyrrolidin-2-yl)methoxy)-7-(naphthalen-1-yl)-5,6,7,8-tetrahydropyrido[3,4-d]pyrimidin-4-yl)-1-(E-4-(piperidin-1-yl)but-2-enoyl)piperazin-2-yl)acetonitrile]
[1]; Homo sapiens, NCI-H358, 3 h
  IC50: 0.1 to 1000 nM
[2]
  POC: C (“C”>50% POC)

## CN1CCC[C@H]1COc1nc2c(c(N3CCN(C(=O)OCc4ccccc4)C(CC#N)C3)n1)CCN(c1ncccc1C(F)(F)F)C2 (stereo partly drawn) [Example 241, benzyl 2-(cyanomethyl)-4-(2-(((S)-1-methylpyrrolidin-2-yl)methoxy)-7-(3-(trifluoromethyl)pyridin-2-yl)-5,6,7,8-tetrahydropyrido[3,4-d]pyrimidin-4-yl)piperazine-1-carboxylate]
[1]; Homo sapiens, NCI-H358, 3 h
  IC50: > 1000 nM
[2]
  POC: C (“C”>50% POC)

## C=CC(=O)N1CCN(c2nc(OC[C@H]3CN(C)C4(CC4)CO3)nc3c2CCN(c2cccc4ccccc24)C3)C[C@@H]1CC#N [Example 446, 2-((S)-1-Acryloyl-4-(2-(((R)-4-methyl-7-oxa-4-azaspiro[2.5]octan-6-yl)methoxy)-7-(naphthalen-1-yl)-5,6,7,8-tetrahydropyrido[3,4-d]pyrimidin-4-yl)piperazin-2-yl)acetonitrile]
[1]; Homo sapiens, NCI-H358, 3 h
  IC50: 0.1 to 1000 nM
[2]
  POC: C (“C”>50% POC)

## C=CC(=O)N1CCN(c2nc(OC[C@@H]3CCCN3C)nc3c2CCN(c2cccc(C)c2C(F)(F)F)C3)CC1CC#N (stereo partly drawn) [Example 265, 2-(1-acryloyl-4-(7-(3-methyl-2-(trifluoromethyl)phenyl)-2-(((S)-1-methylpyrrolidin-2-yl)methoxy)-5,6,7,8-tetrahydropyrido[3,4-d]pyrimidin-4-yl)piperazin-2-yl)acetonitrile]
[1]; Homo sapiens, NCI-H358, 3 h
  IC50: 0.1 to 1000 nM
[2]
  POC: C (“C”>50% POC)

## C=CC(=O)N1CCN(c2nc(OC[C@H]3CCCC(=O)N3)nc3c2CCN(c2cc(O)cc4ccccc24)C3)CC1 (single isomer, unassigned) [Example 62]
[1]; Homo sapiens, NCI-H358, 3 h
  IC50: > 1000 nM
[2]
  POC: C (“C”>50% POC)

## C#CC[C@H]1CN(c2nc(OC[C@@H]3CCCN3C)nc3c2CCN(c2cccc4ccccc24)C3)CCN1C(=O)C=C [Example 358, 1-[(2S)-4-[2-[[(2S)-1-methylpyrrolidin-2-yl]methoxy]-7-(1-naphthyl)-6,8-dihydro-5H-pyrido[3,4-d]pyrimidin-4-yl]-2-prop-2-ynyl-piperazin-1-yl]prop-2-en-1-one]
[1]; Homo sapiens, NCI-H358, 3 h
  IC50: 0.1 to 1000 nM
[2]
  POC: C (“C”>50% POC)

## C=CC(=O)N1CCN(c2nc(OC[C@@H]3CCCN3C)nc3c2CCN(c2c(F)cccc2C(F)(F)F)C3)CC1CC#N (stereo partly drawn) [Example 275, 2-(1-acryloyl-4-(7-(2-fluoro-6-(trifluoromethyl)phenyl)-2-(((S)-1-methylpyrrolidin-2-yl)methoxy)-5,6,7,8-tetrahydropyrido[3,4-d]pyrimidin-4-yl)piperazin-2-yl)acetonitrile]
[1]; Homo sapiens, NCI-H358, 3 h
  IC50: 0.1 to 1000 nM
[2]
  POC: C (“C”>50% POC)

## C=CC(=O)N1CCN(c2nc(OCCN3CCC[C@H](F)C3)nc3c2CCN(c2cc(O)cc4ccccc24)C3)CC1 [Example 111, (S)-1-(4-(2-(2-(3-fluoropiperidin-1-yl)ethoxy)-7-(3-hydroxynaphthalen-1-yl)-5,6,7,8-tetrahydropyrido[3,4-d]pyrimidin-4-yl)piperazin-1-yl)prop-2-en-1-one]
[1]; Homo sapiens, NCI-H358, 3 h
  IC50: 0.1 to 1000 nM
[2]
  POC: C (“C”>50% POC)

## C=CC(=O)N1CCN(c2nc(OC[C@@H]3CCCN3C)nc3c2CCN(c2cc(O)cc4ccccc24)C3)C[C@@H]1CC#N [Example 317, 2-((S)-1-acryloyl-4-(7-(3-hydroxynaphthalen-1-yl)-2-(((S)-1-methylpyrrolidin-2-yl)methoxy)-5,6,7,8-tetrahydropyrido[3,4-d]pyrimidin-4-yl)piperazin-2-yl)acetonitrile]
[1]; Homo sapiens, NCI-H358, 3 h
  IC50: 0.1 to 1000 nM
[2]
  POC: C (“C”>50% POC)

## C=CC(=O)N1CCN(c2nc(O[C@H](C)CN(C)C)nc3c2CCN(c2cc(O)cc4ccccc24)C3)[C@@H](C)C1 [Example 115, 1-((S)-4-(2-(((R)-1-(dimethylamino)propan-2-yl)oxy)-7-(3-hydroxynaphthalen-1-yl)-5,6,7,8-tetrahydropyrido[3,4-d]pyrimidin-4-yl)-3-methylpiperazin-1-yl)prop-2-en-1-one]
[1]; Homo sapiens
  IC50: 0.1 to 1000 nM
[2]
  POC: C (“C”>50% POC)

## C=CC(=O)N1CCN(c2nc(OC[C@@H]3CCCN3C)nc3c2CCN(c2cccc4ccc(OC)cc24)C3)CC1CC#N (stereo partly drawn) [Example 288, 2-[4-[7-(7-methoxy-1-naphthyl)-2-[[(2S)-1-methylpyrrolidin-2-yl]methoxy]-6,8-dihydro-5H-pyrido[3,4-d]pyrimidin-4-yl]-1-prop-2-enoyl-piperazin-2-yl]acetonitrile]
[1]
  IC50: > 1000 nM
[2]
  POC: A (“A”≤25% POC)

## C=CC(=O)N1CCN(c2nc(OC[C@@H]3CCCN3C)nc3c2CCN(c2cccc4cccc(C)c24)C3)C[C@H]1CC#N [Example 458, 2-[(2R)-4-[7-(8-methyl-1-naphthyl)-2-[[(2S)-1-methylpyrrolidin-2-yl]methoxy]-6,8-dihydro-5H-pyrido[3,4-d]pyrimidin-4-yl]-1-prop-2-enoyl-piperazin-2-yl]acetonitrile]
[1]; Homo sapiens, NCI-H358, 3 h
  IC50: 0.1 to 1000 nM
[2]
  POC: C (“C”>50% POC)

## C=CC(=O)N1CCN(c2nc(OCCCN3CCOCC3)nc3c2CCN(c2cc(O)cc(Cl)c2F)C3)CC1 [Example 232, 1-(4-(7-(3-chloro-2-fluoro-5-hydroxyphenyl)-2-(3-morpholinopropoxy)-5,6,7,8-tetrahydropyrido[3,4-d]pyrimidin-4-yl)piperazin-1-yl)prop-2-en-1-one]
[1]; Homo sapiens
  IC50: > 1000 nM
[2]
  POC: C (“C”>50% POC)

## C=CC(=O)N1CC2(C1)CN(c1nc(OCCCN(C)C)nc3c1CCN(c1cc(O)cc4ccccc14)C3)C2 [Example 20, 1-(6-(2-(3-(dimethylamino)propoxy)-7-(3-hydroxynaphthalen-1-yl)-5,6,7,8-tetrahydropyrido[3,4-d]pyrimidin-4-yl)-2,6-diazaspiro[3.3]heptan-2-yl)prop-2-en-1-one]
[1]; Homo sapiens, NCI-H358, 3 h
  IC50: > 1000 nM
[2]
  POC: C (“C”>50% POC)

## C=CC(=O)N1CCN(c2nc(OC(CO)CN3CCOCC3)nc3c2CCN(c2cc(O)cc4ccccc24)C3)CC1 (centres unmarked) [Example 217, 1-(4-(2-((1-hydroxy-3-morpholinopropan-2-yl)oxy)-7-(3-hydroxynaphthalen-1-yl)-5,6,7,8-tetrahydropyrido[3,4-d]pyrimidin-4-yl)piperazin-1-yl)prop-2-en-1-one]
[1]; Homo sapiens, NCI-H358, 3 h
  IC50: > 1000 nM
[2]
  POC: C (“C”>50% POC)

## C=CC(=O)N1CCN(c2nc(OC[C@@H]3C[C@H](OC)CN3C)nc3c2CCN(c2cccc4ccccc24)C3)CC1CC#N (stereo partly drawn) [Example 222, 2-(1-acryloyl-4-(2-(((2S,4S)-4-methoxy-1-methylpyrrolidin-2-yl)methoxy)-7-(naphthalen-1-yl)-5,6,7,8-tetrahydropyrido[3,4-d]pyrimidin-4-yl)piperazin-2-yl)acetonitrile]
[1]; Homo sapiens, NCI-H358, 3 h
  IC50: 0.1 to 1000 nM
[2]
  POC: C (“C”>50% POC)

## C=CC(=O)N1CCN(c2nc(OCCN(C)C)nc3c2CCN(c2cc(O)cc4ccccc24)C3)C[C@H]1C [Example 15, (R)-1-(4-(2-(2-(dimethylamino)ethoxy)-7-(3-hydroxynaphthalen-1-yl)-5,6,7,8-tetrahydropyrido[3,4-d]pyrimidin-4-yl)-2-methylpiperazin-1-yl)prop-2-en-1-one]
[1]; Homo sapiens, NCI-H358, 3 h
  IC50: > 1000 nM
[2]
  POC: C (“C”>50% POC)

## C/C=C/C(=O)N1CCN(c2nc(OC[C@@H]3CCCN3C)nc3c2CCN(c2cccc4ccccc24)C3)CC1CC#N (stereo partly drawn) [Example 293, 2-[1-[(E)-but-2-enoyl]-4-[2-[[(2S)-1-methylpyrrolidin-2-yl]methoxy]-7-(1-naphthyl)-6,8-dihydro-5H-pyrido[3,4-d]pyrimidin-4-yl]piperazin-2-yl]acetonitrile]
[1]
  IC50: 0.1 to 1000 nM
[2]
  POC: C (“C”>50% POC)

## C=CC(=O)N1CCN(c2nc(OC[C@@H]3CCCN3C)nc3c2CCN(c2cccc4ccccc24)C3)[C@@H](C#N)C1 [Example 462, (R)-4-acryloyl-1-(2-(((S)-1-methylpyrrolidin-2-yl)methoxy)-7-(naphthalen-1-yl)-5,6,7,8-tetrahydropyrido[3,4-d]pyrimidin-4-yl)piperazine-2-carbonitrile]
[1]; Homo sapiens, NCI-H358, 3 h
  IC50: > 1000 nM
[2]
  POC: C (“C”>50% POC)

## C=CC(=O)N1CCN(c2nc(OC[C@@H]3C[C@@H](F)CN3C)nc3c2CCN(c2cccc(C)c2C)C3)C[C@@H]1CC#N [Example 435, 2-((S)-1-acryloyl-4-(7-(2,3-dimethylphenyl)-2-(((2S,4R)-4-fluoro-1-methylpyrrolidin-2-yl)methoxy)-5,6,7,8-tetrahydropyrido[3,4-d]pyrimidin-4-yl)piperazin-2-yl)acetonitrile]
[1]; Homo sapiens, NCI-H358, 3 h
  IC50: 0.1 to 1000 nM
[2]
  POC: C (“C”>50% POC)

## C=CC(=O)N1CCN(c2nc(OC[C@@H]3CCCN3CC3CC3)nc3c2CCN(c2cccc4ccccc24)C3)CC1CC#N (stereo partly drawn) [Example 395, 2-(1-acryloyl-4-(2-(((S)-1-(cyclopropylmethyl)pyrrolidin-2-yl)methoxy)-7-(naphthalen-1-yl)-5,6,7,8-tetrahydropyrido[3,4-d]pyrimidin-4-yl)piperazin-2-yl)acetonitrile]
[1]; Homo sapiens, NCI-H358, 3 h
  IC50: 0.1 to 1000 nM
[2]
  POC: C (“C”>50% POC)

Source: US10125134B2 (Mirati Therapeutics, Inc., priority 2016, dated 2018)
